Drawing on PMC6056506, “Single olfactory receptors set odor detection thresholds” (Nature Communications, 2018), this text covers EC50 for three molecules.

SMILES strings stand for the structures.

Experiment in all cases: in vivo wide-field GCaMP3 calcium imaging of identified glomeruli, awake mice
In one assay the target is T1, TAAR4 (Mus musculus, UniProt Q5QD15).
T1 construct: full-length native receptor from endogenous locus in olfactory sensory neurons; allele TAAR4-IRES-tauCherry (TAAR4-RFP); receptor itself untagged
T1 sequence (Q5QD15 1-347): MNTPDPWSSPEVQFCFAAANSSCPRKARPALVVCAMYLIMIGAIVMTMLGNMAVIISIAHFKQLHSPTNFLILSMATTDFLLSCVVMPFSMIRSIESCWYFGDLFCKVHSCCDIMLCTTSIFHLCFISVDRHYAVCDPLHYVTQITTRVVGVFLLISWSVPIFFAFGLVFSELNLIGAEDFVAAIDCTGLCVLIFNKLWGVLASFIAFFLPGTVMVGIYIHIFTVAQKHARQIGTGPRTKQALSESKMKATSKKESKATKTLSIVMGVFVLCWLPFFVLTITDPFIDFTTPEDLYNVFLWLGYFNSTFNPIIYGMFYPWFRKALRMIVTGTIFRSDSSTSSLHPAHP
The note with it: agonist; vapour-phase odorant concentration (flow dilution olfactometer), not aqueous; glomerular read-out.

Another assay deals with T2, TAAR3 (Mus musculus, UniProt Q5QD16).
T2 construct: full-length native receptor from endogenous locus in olfactory sensory neurons; allele TAAR3-IRES-tauVenus (TAAR3-YFP); receptor itself untagged
T2 sequence (Q5QD16 1-343): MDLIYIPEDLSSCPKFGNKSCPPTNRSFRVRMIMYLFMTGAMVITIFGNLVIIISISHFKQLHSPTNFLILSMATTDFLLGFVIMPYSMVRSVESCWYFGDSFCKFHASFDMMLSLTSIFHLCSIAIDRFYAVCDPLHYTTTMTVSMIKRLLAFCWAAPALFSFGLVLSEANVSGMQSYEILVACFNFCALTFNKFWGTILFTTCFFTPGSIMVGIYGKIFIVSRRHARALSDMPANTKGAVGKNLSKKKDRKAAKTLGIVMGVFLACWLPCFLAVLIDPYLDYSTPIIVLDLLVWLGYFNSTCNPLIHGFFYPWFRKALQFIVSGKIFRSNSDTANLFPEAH
To be noted: agonist, vapour-phase odorant concentration (flow dilution olfactometer), not aqueous, glomerular read-out.

Another assay has as its target T3, TAAR5 (Mus musculus, UniProt Q5QD14).
T3 construct: full-length native receptor in olfactory sensory neurons; glomeruli identified by response profile and from separate TAAR5-RFP imaging experiments
T3 sequence (Q5QD14 1-337): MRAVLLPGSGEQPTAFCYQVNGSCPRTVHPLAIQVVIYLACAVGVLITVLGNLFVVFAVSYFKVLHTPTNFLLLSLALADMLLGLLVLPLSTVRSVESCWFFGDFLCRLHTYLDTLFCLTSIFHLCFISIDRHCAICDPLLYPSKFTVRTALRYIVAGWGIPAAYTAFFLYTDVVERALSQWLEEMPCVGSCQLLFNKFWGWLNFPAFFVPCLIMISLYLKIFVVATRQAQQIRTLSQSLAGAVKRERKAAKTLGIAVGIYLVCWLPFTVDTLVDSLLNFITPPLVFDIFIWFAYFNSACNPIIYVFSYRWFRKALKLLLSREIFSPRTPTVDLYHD
The note with it: agonist; vapour-phase odorant concentration (flow dilution olfactometer), not aqueous; glomerular read-out.

`CC(C)CCN` [isopentylamine]: the EC50 on TAAR4 was found to be 9.9 nM; at TAAR3 it was 0.41 nM.
For the molecule `NCCc1ccccc1` [phenylethylamine], the EC50 on TAAR3 (printed CI does not contain the value) came to 0.19 nM.
Consider `CN(C)C` [trimethylamine], for which the concentration giving a half-maximal response (EC50) was 470 nM at TAAR4, 790 nM at TAAR3 and 31 nM at TAAR5.
